This note sets out measurements from patent US10392422B2, “Macrocyclic broad spectrum antibiotics” (priority 2014, dated 2019).

Molecules are shown by their SMILES. Converted amounts (≈) assume the structure as drawn. Read-outs that look alike come from different tables or passages of the source.

Common to all, as to assay: MIC, broth micro-dilution technique (CLSI)
A general note: Dilution methods test growth across graded concentrations, often in twofold steps.

Assay [1] deals with Escherichia coli MC4100 harboring the IMP4213. The assay is classed as cell-based. The settings on record: Escherichia coli, 22 h, read-out: MIC (μg/mL) E. coli, Table 1 protocol: serial 2-fold dilutions starting from 64 μg/ml; 35° C., 22 hours. Put shortly:
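MICs determined after 35 °C, 22 h incubation of bacteria (final OD600 0.0005) with 10-point 2-fold compound series. Series topped at 64 μg/ml in the standard protocol or 4 μg/mL in the modified one. Medium: cation-adjusted Mueller Hinton broth plus 0.002% Tween-80. E. coli MC4100 imp4213 has a permeabilized outer membrane.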

For assay [2], the system named is Methicillin Resistant Staphylococcus aureus strain USA 300 (NRS384). The assay is classed as cell-based. The conditions noted are these: Staphylococcus aureus, 22 h, read-out: MIC (μg/mL) S. aureus. The method in brief: (§1)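 Cation-adjusted MHB + 0.002% Tween-80; 10-point 2-fold series starting 64 μg/ml (modified protocol: 4 μg/mL). Final inoculum OD600 0.0005; 35° C, 22 h. MIC per CLSI M07-A8 broth microdilution.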

A further assay concerns MRSA COL (NRS100). The assay is classed as cell-based, Staphylococcus aureus. The settings on record: Staphylococcus aureus, 22 h, read-out: MIC (μg/mL) (COL). The method in brief: as §1
Where [3] appears, read: Table 1 protocol: serial 2-fold dilutions starting from 64 μg/ml, 35° C., 22 hours.

As to `C[C@@H]1NC(=O)[C@@H](N(C)C(=O)[C@H](CCCCN)NC(=O)c2ccc(-c3ccc(Cl)cc3)cc2)c2ccc(O)c(c2)-c2cc(ccc2O)C[C@@H](C(=O)N[C@@H](C)C(=O)N2C[C@@H](O)C[C@H]2C(N)=O)NC1=O` [Compound 177], the MIC in assay [1] is 64 µg/mL (≈ 68.1 µM); in assay [2] (setting [3]) it was 16 µg/mL (≈ 17 µM); in the assay on MRSA COL (NRS100) (setting [3]) it was 4 µg/mL (≈ 4.26 µM).
With `C[C@H](NC(=O)[C@@H]1CCCN1C(=O)[C@H](C)NC(=O)[C@@H]1Cc2ccc(O)c(c2)-c2cc(ccc2O)[C@H](N(C)C(=O)[C@H](CCCCN)NC(=O)c2ccc(-c3ccc(Cl)cc3)cc2)C(=O)N[C@@H](C)C(=O)N1)C(N)=O` [Compound 179], the MIC is 64 µg/mL (≈ 64.4 µM) in assay [1], 32 µg/mL (≈ 32.2 µM) in assay [2] and 16 µg/mL (≈ 16.1 µM) in the assay with MRSA COL (NRS100).
Turning to `C[C@@H]1NC(=O)[C@@H](N(C)C(=O)[C@H](CCCCN)NC(=O)c2ccc(-c3ccc(Cl)cc3)cc2)c2ccc(O)c(c2)-c2cc(ccc2O)C[C@@H](C(=O)N[C@@H](C)C(=O)N(C)CC(N)=O)NC1=O` [Compound 182], the MIC in assay [1] amounted to 64 µg/mL (≈ 71.3 µM); in assay [2] (setting [3]), 10 µg/mL (≈ 11.1 µM); in the assay with MRSA COL (NRS100) (setting [3]), 2 µg/mL (≈ 2.23 µM).
For `C[C@@H]1NC(=O)[C@@H](N(C)C(=O)[C@H](CCCCN)NC(=O)c2ccc(-c3ccc(Cl)cc3)cc2)c2ccc(O)c(c2)-c2cc(ccc2O)C[C@@H](C(=O)N[C@@H](C)C(=O)N(C)[C@@H](C)C(N)=O)NC1=O` [Compound 183] the same measures were 32 µg/mL (≈ 35.1 µM), 8 µg/mL (≈ 8.78 µM) and 2.4 µg/mL (≈ 2.63 µM).
For `C[C@@H]1NC(=O)[C@@H](N(C)C(=O)[C@H](CCCCN)NC(=O)c2ccc(-c3ccc(Cl)cc3)cc2)c2ccc(O)c(c2)-c2cc(ccc2O)C[C@@H](C(=O)N[C@@H](C)C(=O)N2CCC[C@H]2C(=O)NN)NC1=O` [Compound 186] the same measures were greater than 64 µg/mL, 45 µg/mL (≈ 47.9 µM) and 12 µg/mL (≈ 12.8 µM).
The like results for `CCCCCCCCCCNCCC(=O)N[C@@H](CCCCN)C(=O)N(C)[C@@H]1C(=O)N[C@@H](C)C(=O)N[C@H](C(=O)N[C@@H](C)C(=O)N(C)[C@H]2CCNC2=O)Cc2ccc(O)c(c2)-c2cc1ccc2OCCN` [Compound 187] were, in that order, 23 µg/mL (≈ 23.9 µM), 3.7 µg/mL (≈ 3.84 µM) and 0.5 µg/mL (≈ 0.519 µM).
For `CC(NC(=O)[C@@H]1Cc2ccc(O)c(c2)-c2cc(ccc2O)[C@H](N(C)C(=O)[C@H](CCCCN)NC(=O)c2ccc(-c3ccc(Cl)cc3)cc2)C(=O)N[C@@H](C)C(=O)N1)C(=O)c1ncco1` (stereo partly drawn) [Compound 188], the results for the MIC (in assay [1]; in assay [2] (setting [3]); in the assay with MRSA COL (NRS100) (setting [3])) were 11 µg/mL (≈ 12.5 µM), 16 µg/mL (≈ 18.2 µM) and 4 µg/mL (≈ 4.55 µM), respectively.
Regarding `C[C@H](NC(=O)[C@@H]1Cc2ccc(O)c(c2)-c2cc(ccc2O)[C@H](N(C)C(=O)[C@H](CCCCN)NC(=O)c2ccc(-c3ccc(Cl)cc3)cc2)C(=O)N[C@@H](C)C(=O)N1)C(=O)CC(N)=O` [Compound 189], the MIC was found to be 32 µg/mL (≈ 36.8 µM) in assay [1], 5.7 µg/mL (≈ 6.56 µM) in assay [2] (setting [3]) and 2 µg/mL (≈ 2.3 µM) with MRSA COL (NRS100) (setting [3]).
The like results for `CCCCCCCCCCNCCC(=O)N[C@@H](CCCCN)C(=O)N(C)[C@@H]1C(=O)N[C@@H](C)C(=O)N[C@H](C(=O)N[C@@H](C)C(=O)N2CCC[C@H]2C(N)=O)Cc2ccc(O)c(c2)-c2cc1ccc2OCCN` [Compound 190] were, in that order, 32 µg/mL (≈ 33.2 µM), 1.7 µg/mL (≈ 1.76 µM) and 0.25 µg/mL (≈ 0.26 µM).
`COC(=O)CC(=O)[C@H](C)NC(=O)[C@@H]1Cc2ccc(O)c(c2)-c2cc(ccc2O)[C@H](N(C)C(=O)[C@H](CCCCN)NC(=O)c2ccc(-c3ccc(Cl)cc3)cc2)C(=O)N[C@@H](C)C(=O)N1` [Compound 191]: the MIC in assay [1] was greater than 64 µg/mL; in assay [2] (setting [3]), 32 µg/mL (≈ 36.2 µM); in the assay with MRSA COL (NRS100) (setting [3]), 8 µg/mL (≈ 9.06 µM).
For `C[C@H](NC(=O)[C@@H]1Cc2ccc(O)c(c2)-c2cc(ccc2O)[C@H](N(C)C(=O)[C@H](CCCCN)NC(=O)c2ccc(-c3ccc(Cl)cc3)cc2)C(=O)N[C@@H](C)C(=O)N1)C(=O)Cc1c[nH]nn1` [Compound 192], the MIC in assay [1] turned out to be 64 µg/mL (≈ 71.7 µM); in assay [2] (setting [3]) it was 11 µg/mL (≈ 12.3 µM); with MRSA COL (NRS100) (setting [3]) it was 2 µg/mL (≈ 2.24 µM).
